Test [1] addresses T1, SpNOX (Streptococcus pneumoniae NOX) (Streptococcus pneumoniae, UniProt Q8CZ28).
T1 construct: gene spr0531; residues 2-400, N-terminal 6xHis-PreScission tag cleaved, E. coli C41(DE3), LMNG micelles, monomer, 46 kDa, two b-type hemes and FAD
T1 sequence (Q8CZ28 2-400): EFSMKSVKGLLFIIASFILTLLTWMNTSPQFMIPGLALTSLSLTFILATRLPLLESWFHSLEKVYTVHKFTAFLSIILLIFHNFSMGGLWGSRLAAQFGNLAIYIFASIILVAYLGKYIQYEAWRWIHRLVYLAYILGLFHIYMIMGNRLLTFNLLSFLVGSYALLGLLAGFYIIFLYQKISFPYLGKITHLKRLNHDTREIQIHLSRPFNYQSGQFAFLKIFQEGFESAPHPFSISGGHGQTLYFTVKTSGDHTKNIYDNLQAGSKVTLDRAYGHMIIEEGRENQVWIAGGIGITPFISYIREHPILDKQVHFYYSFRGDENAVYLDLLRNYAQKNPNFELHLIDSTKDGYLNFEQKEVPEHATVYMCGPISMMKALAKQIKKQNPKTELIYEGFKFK
Type of test: binding. The settings on record: substrate-free, 1 mM FAD added; DH domain FAD site.

Test [2] deals with T1, SpNOX (Streptococcus pneumoniae NOX). The experiment in a line: cytochrome c reduction assay, absorbance at […] nm. The settings on record: 100 µM bovine cytochrome c, 0.1 µM SpNOX, 1 µM FAD, 50 mM Tris pH 7.0, 250 mM NaCl, room temperature, aerobic; read-out: apparent KM. Type of test: biochemical.

The source of these data is PMC11564096, “Structural and mechanistic insights into Streptococcus pneumoniae NADPH oxidase” (Nature Structural & Molecular Biology, 2024).

`Cc1cc2nc3c(=O)[nH]c(=O)nc-3n(C[C@H](O)[C@H](O)[C@H](O)COP(=O)(O)OP(=O)(O)OC[C@H]3O[C@@H](n4cnc5c(N)ncnc54)[C@H](O)[C@@H]3O)c2cc1C` [FAD]: in test [1], the “cryo-EM structure, 2.29 Å” value is on record as “A clear density for FAD was well resolved in all maps”.
As for `NC(=O)C1=CN([C@@H]2O[C@H](COP(=O)(O)OP(=O)(O)OC[C@H]3O[C@@H](n4cnc5c(N)ncnc54)[C@H](OP(=O)(O)O)[C@@H]3O)[C@@H](O)[C@H]2O)C=CC1` [NADPH], the Km (in general, the concentration of substrate that gives half-maximal velocity) in test [2] stood at 7.59 µM.
